{"source": "patent US7834006B2", "about": "“Fused polycyclic compounds” (Ajinomoto Co., Inc., priority 2004, dated 2010)", "system": "adipose cells of rats", "assay": "Evaluation of the sugar transporting capacity (2-[14C(U)]-deoxy-D-glucose incorporation)", "type": "cell-based", "conditions": "insulin 100 nM; rat adipose cells; 2-deoxy-D-glucose incorporation", "method": "Preparation of Adipose Cells of Rats:\nAfter the decapitation and venesection of 6 male Wistar rats (body weight: 150 to 200 g), an incision was made in the abdomen of each rat to extract 6 g in total of epididymal adipose tissues. The tissues were finely cut into 2 mm×2 mm pieces in 6 ml of KRH (Krebs-Ringer Hepes, composition: 130 mM of sodium chloride, 4.7 mM of potassium chloride, 1.2 mM of potassium dihydrogenphosphate, 1.2 mM of magnesium sulfate, 1 mM of calcium chloride and 25 mM of Hepes, pH=7.6) containing 5% of BSA (bovine serum albumin). 24 mg of collagenase (type I) was added thereto and the digestion treatment was conducted for about 40 minutes to obtain about 6 ml of isolated adipose cells. The collagenase was removed by the buffer exchange. 2% BSA/KRH solution was added to the residue for the re-suspension to obtain 45 ml of an adipose cell suspension.\nEvaluation of the Sugar Transporting Capacity: […]\nThe sugar transporting capacity was evaluated by measuring the quantity of 2-[^14C(U)]-deoxy-D-glucose incorporated per a unit time. […] The quantity of 2-[^14C(U)]-deoxy-D-glucose contained in the adipose cell layer was determined with a liquid scintillation counter to determine the quantity of the incorporated sugar.", "data": [{"substance": "insulin", "values": [{"measurement": "effect of increasing the sugar-transporting capacity versus insulin-free control group", "value": "about 7 times"}]}]}
